{
  "source": "patent US6197575A",
  "about": "“Vascularized perfused microtissue/micro-organ arrays” (Massachusetts Institute of Technology, priority 1999, dated 2001)",
  "key": {"P450 1A1": {"tested_on": "P450 1A1", "test": "EROD assay (7-ethoxyresorufin O-dealkylation) in perfused bioreactor chip of hepatocytes and endothelial cells", "type": "cell-based, rat", "procedure": "Bioreactor constructs using an assay that measures the activity of one representative P450 isozyme, cytochrome P450 1A1, was evaluated. This enzyme is present in all mammalian species and is highly inducible by polycyclic aromatic hydrocarbons as well as other agents. 7-Ethoxyresorufin is a selective substrate of rat P450 1A1 which catalyzes its de-ethylation to the highly fluorescent resorufin. Subsequent to P450 1A1 catalyzed de-ethylation, resorufin can be exported from the cell or undergo phase II conjugation. There are two possible phase II conjugation products resulting from the enzyme catalyzed addition of sulfate or glucoronic acid to the 7-hydroxyl group of resorufin. Thus, from this assay one can quantitatively determine the activity of P450 1A1 and the phase II conjugation enzymes. […]\nThe 7-ethoxyresorufin O-dealkylation (EROD) assay involved dissolving the substrate into the chemically defined media (final concentration of 10-20 μM) and perfusing it through the tissue array. The effluent was collected in sequential fractions which then were analyzed by fluorescence detection for the presence of resorufin. Total conversion within each fraction was determined by incubating an aliquot from the fraction with enzymes that hydrolyze the phase II conjugates of resorufin back to the free alcohol. […]"}, "cells": {"tested_on": "cells", "conditions": "tethered to silicon substrates; cited from earlier work"}},
  "data": [
    {"compound": "Cc1ccc2cc3c(ccc4ccccc43)c3c2c1CC3", "note": "[3-methylcholanthrene]", "values": [
      {"measurement": "increase in absolute level of resorufin formation", "setting": "P450 1A1; bioreactor treated for final 24 hours in static culture, attomoles resorufin formed per minute per hepatocyte", "result": "approximately five"}
    ]},
    {"compound": "O=c1cc(-c2ccccc2)oc2c1ccc1ccccc12", "note": "[naphthoflavone]", "values": [
      {"measurement": "enzyme activity (resorufin formation) in presence and after removal of inhibitor", "setting": "P450 1A1; 20 μM inhibitor with 10 μM ethoxyresorufin, t=240-385 min", "result": "inhibited by the inclusion of a reversible inhibitor to the media and then recovered when the inhibitor was removed"}
    ]},
    {"compound": "Tethered EGF: epidermal growth factor (EGF) tethered to silicon substrates", "values": [
      {"measurement": "biological activity after tethering", "setting": "cells", "result": "retained full biological activity"},
      {"measurement": "stimulation of cells", "setting": "cells", "result": "stimulate cells in a dose-dependent manner"}
    ]}
  ]
}
